Measured values: patent US12448655B2, “Antibiotic susceptibility of microorganisms and related methods and systems” (CALIFORNIA INSTITUTE OF TECHNOLOGY, priority 2017, dated 2025)

How the values were obtained:
[1] = test system: Escherichia coli; assay: Minimum inhibitory concentrations (MICs) of Enterobacteriaceae clinical isolates; type: cell-based
Description: (§1) Clinical isolates referenced, minimum inhibitory concentrations (MICs), and categorical susceptibility based on CLSI breakpoints The below list of organisms are examples of clinically-relevant susceptible and resistant Enterobacteriaceae clinical isolates. Minimum inhibitory concentrations (MICs) are provided in μg/mL for the antibiotics listed.
(§2) Isolates, growth conditions, and antibiotic exposure conditions. 25 de-identified clinical isolates were obtained from the UCLA Clinical Microbiology Laboratory (CML) and the CDC's Enterobacteriaceae Carbapenem Breakpoint panel. In the case of isolates obtained from the UCLA CML, MICs were determined as described previously. Genotypic testing of the two Ec and two Kp isolates selected for their lack of known β-lactamase genes was performed by UCLA CML using a previously published assay and separately at the Keck School of Medicine of USC using the FDA-approved Cepheid Xpert® Carba-R test. Whole genome sequencing of the single Ebs isolate selected for its lack of known resistance genes was performed by the CDC [3]. All isolates were stored as glycerol stocks at −80° C. Glycerol stocks were streaked onto Trypticase Soy Agar with 5% sheep's blood (Becton Dickinson, Franklin Lakes, NJ, USA) and grown overnight at 37° C. Prior to experiments, a small clump of cells was resuspended in 2 mL Brain Heart Infusion Broth (BHI, Becton Dickinson) at 37° C.+5% CO2 with 500 rpm shaking for 2 to 4 h until visibly turbid. OD600 of the cultures was then measured, and working cultures prepared at an OD600 of 0.01-0.07 and grown for 50-145 min at 37° C.+5% CO2 with 500 rpm. Working cultures were then diluted 10× into control and treated aliquots for antibiotic exposure. For validation experiments, antibiotic exposure was performed in 100 μL volumes consisting of 80 μL Mueller Hinton II Broth (Becton Dickinson), 5 μL nuclease-free H2O (NF—H2O), 5 μL 20× antibiotic stock solution, and 10 μL of working culture. In control aliquots, antibiotic stock solution was replaced with NF—H2O. For filtration experiments, antibiotic exposure was performed in 100 μL volumes consisting of 65 μL Mueller Hinton II Broth (Becton Dickinson), 21 μL nuclease-free H2O (NF—H2O), 4 μL 25× antibiotic stock solution, and 10 μL of working culture. In control aliquots, antibiotic stock solution was replaced with NF—H2O.

[2] = test system: Klebsiella pneumoniae; assay: as above; type: cell-based
Description: as §1, §2

[3] = test system: Neisseria gonorrhoeae; assay: Minimum inhibitory concentrations (MICs) of Neisseria gonorrhoeae clinical isolates; type: cell-based
Method: Isolates and agar-dilution MIC testing. Isolates were provided by the University of Washington Neisseria Reference Laboratory and the Centers for Disease Control (CDC) Antibiotic Resistance Isolate Bank Neisseria gonorrhoeae panel (SINuca-Table). MICs of the CDC AR Isolate Bank are reported by the CDC [10], and MIC of all other isolates were determined by agar dilution according to the Clinical and Laboratory Standards Institute (CLSI) guidelines.

[4] = test system: E. coli isolates; assay: Quantification of DNA release following antibiotic exposure, filtration and ddPCR (Example 27); type: cell-based, Escherichia coli; parameters: dose or concentration left out as unconfirmed; details: 15 min exposure, 0.22 μm filtration, ddPCR
Method: Filtration experiments. Filtration experiments were performed using E. coli isolates exposed to 0.5 μg/mL ertapenem for 15 min. Immediately following exposure, cultures were passed through 0.22 μm, 1.5 mL cellulose acetate centrifuge tube filters (Corning Costar Spin-X, Corning, NY) by adding 50 μL of sample to the filter and centrifuging for 4 minutes at 1000 ref. DNA was extracted from both the feed and filtrate using QuickExtract DNA Extraction Solution (Lucigen, Middleton, WI, USA). Samples were diluted 10× into extraction buffer and extracted according to manufacturer instructions. The concentration of the single copy E. coli uidA gene was then quantified in the feed and filtrate extractions. The percentage of E. coli DNA in the filtrate was calculated as the filtrate concentration divided by the feed concentration. Droplet digital PCR (ddPCR) was performed using QX200 ddPCR Supermix for EvaGreen (BioRad). 10% of the final reaction volume was template. Published primers targeting the uidA gene in E. coli were used at a final concentration of 500 nM. Cycling conditions consisted of 5.0 min at 95° C., followed by 40 cycles of 95° C. for 30 sec, 60° C. for 30 sec, and 72° C. for 30 sec., with final dye stabilization steps of 4° C. for 5.0 min followed by 90° C. for 5.0 min.
To investigate the mechanism of pol-aAST, experiments were performed to separate free NAs from NAs contained within structurally intact cells or associated with cell debris. Susceptible and resistant clinical isolates were exposed to β-lactams for 15 min, then filtered through […] filters to remove cells from free NAs. NAs in the sample and eluate were then quantified using droplet digital PCR (ddPCR).

[5] = test system: E. coli isolates; assay: pol-aAST, comparison of LAMP and qPCR amplification (Example 26); type: cell-based, Escherichia coli; details: 0.5 μg/mL ertapenem for 15 min
Method: Comparison of amplification methods. In order to compare amplification using LAMP and PCR, E. coli isolates were exposed to 0.5 μg/mL ertapenem for 15 min. Samples were then transferred directly into either PCR or LAMP mix on ice. Amplification was started immediately. Quantitative PCR (qPCR) was performed on a Roche LightCycler 96 using SsoFast EvaGreen Supermix (BioRad, Hercules, CA, USA). 10 μL reactions were used. 10% of the final reaction volume was template. Published primers were used at a final concentration of 500 nM. Cycling conditions consisted of 3.0 min at 95° C., followed by 35 cycles of 95° C. for 10 sec, 60° C. for 10 sec, and 72° C. for 15 sec. Fluorescence was measured using the SYBR Green channel after each 72° C. extension step. LAMP was performed on a BioRad CFX96 using the following conditions: 10 μL reaction volume containing 1× Isothermal Reaction Buffer II (NEB), 5 mM MgSO4 (NEB), 1.4 mM dNTPs (NEB), 320 U/mL Bst 3.0 (NEB), and 2 μM Syto-9 (Thermo Fisher). 10% of the reaction volume was template. Primer sequences and concentrations have been described previously. Cycling conditions consisted of 2.0 min at 12° C. (while lid was heating), followed by 120 cycles of 70° C. for 10 sec. Fluorescence was measured using the SYBR Green channel every 10 sec (after each cycle).
To test this, pol-aAST is performed in this example using LAMP, and quantitative PCR (qPCR) (FIG. 48). […]

[6] = test system: Ng isolates; assay: Percentage of cell lysis due to enhancer alone (Example 33); type: cell-based, Neisseria gonorrhoeae; details: Ng clinical isolates (12 for BAC); no antibiotic
Method: Enhancer use. Working cultures of Ng isolates were prepared as described in “Ng culture preparation.” Initial exposure was performed by incubating 100 μL control and treated samples at 37° C. in PCR tube strips on a BioRad C1000 Thermal Cycler. Treated samples consisted of 75 μL MHB, 5 μL NaHCO3 (100 mM), 5 μL DNase I (2 U/μL), 5 μL PEN or CRO (20 μg/mL), and […] working Ng isolate culture. ABX were replaced with NF—H2O in control samples. After 15 min of incubation, samples were vortexed and quick-spun, and aliquots of all samples were transferred to the enhancement step as described below. After the enhancement step, 5 or 10 μL of all samples were extracted by diluting 10× in QuickExtract DNA Extraction Solution (Lucigen) and heating for 6 min at 65° C. followed by 4 min at 98° C. on a BioRad C1000 Thermal Cycler. All sample handling following ABX exposure was performed using a multichannel pipette; qPCR and calculation of % accessibility was performed as described above.
Osmotic and autolytic enhancing steps were performed in 100 μL volumes. The osmotic enhancing step consisted of 89.75 μL NF—H2O, 4.75 μL DNase I (2 U/μL), 0.5 μL CaCl (100 mM, 0.2-μM filtered), and 5 μL initial exposure samples. […]

CC1(C)S[C@@H]2[C@H](NC(=O)[C@H](N)c3ccccc3)C(=O)N2[C@H]1C(=O)O [AMP, ampicillin]
Antibiotic MICs ([1]; isolate Ec_1): 4 µg/mL | Antibiotic MICs ([1]; isolate Ec_2): <=2 μg/mL | Antibiotic MICs ([1]; isolate Ec_3): <=2 μg/mL | Antibiotic MICs ([1]; isolate Ec_4): <=2 μg/mL | Antibiotic MICs ([1]; isolate Ec_39): >=32 μg/mL | Antibiotic MICs ([1]; isolate Ec_40): >=32 μg/mL | Antibiotic MICs ([2]; isolate Kp_7): >32 µg/mL | Antibiotic MICs ([2]; isolate Kp_8): >32 µg/mL

C=CC1=C(C(=O)O)N2C(=O)[C@@H](NC(=O)/C(=N\OCC(=O)O)c3csc(N)n3)[C@H]2SC1 [CFM, cefixime]
Antibiotic MICs ([3]; isolate ng_1): ≤0.015 µg/mL | Antibiotic MICs ([3]; isolate ng_2): ≤0.015 µg/mL | Antibiotic MICs ([3]; isolate ng_3): ≤0.015 µg/mL | Antibiotic MICs ([3]; isolate ng_4): 0.060 µg/mL | Antibiotic MICs ([3]; isolate ng_5): 0.030 µg/mL | Antibiotic MICs ([3]; isolate ng_6): 0.015 µg/mL | Antibiotic MICs ([3]; isolate ng_12): 0.030 µg/mL | Antibiotic MICs ([3]; isolate ng_15): ≤0.015 µg/mL | Antibiotic MICs ([3]; isolate ng_16): ≤0.015 µg/mL | Antibiotic MICs ([3]; isolate ng_17): ≤0.015 µg/mL | Antibiotic MICs ([3]; isolate ng_18): 0.060 µg/mL | Antibiotic MICs ([3]; isolate ng_19): 0.030 µg/mL | Antibiotic MICs ([3]; isolate ng_20): ≤0.015 µg/mL | Antibiotic MICs ([3]; isolate ng_30): 1.000 µg/mL | Antibiotic MICs ([3]; isolate ng_41): 0.250 µg/mL | Antibiotic MICs ([3]; isolate ng_44): ≤0.015 µg/mL

C[C@@H](O)[C@H]1C(=O)N2C(C(=O)O)=C(S[C@@H]3CN[C@H](C(=O)Nc4cccc(C(=O)O)c4)C3)[C@H](C)[C@H]12 [ETP, ertapenem]
average percentage of DNA released from susceptible isolates [4]: 15% | time-to-positive difference (TTPD) between control and treated aliquots, LAMP ([5]; susceptible E. coli isolate): 1.02 min | difference in Cq between control and treated samples, qPCR ([5]; two susceptible and two resistant E. coli isolates): none of which showed a statistically significant difference in Cq | Antibiotic MICs ([1]; isolate Ec_1): <=.5 μg/mL | Antibiotic MICs ([1]; isolate Ec_2): <=.5 μg/mL | Antibiotic MICs ([1]; isolate Ec_3): <=.5 μg/mL | Antibiotic MICs ([1]; isolate Ec_4): <=.5 μg/mL | Antibiotic MICs ([1]; isolate Ec_38): >4 µg/mL | Antibiotic MICs ([1]; isolate Ec_39): 2 µg/mL | Antibiotic MICs ([1]; isolate Ec_40): 2 µg/mL | Antibiotic MICs ([1]; isolate Ec_41): 2 µg/mL | Antibiotic MICs ([2]; isolate Kp_1): <=.5 μg/mL | Antibiotic MICs ([2]; isolate Kp_2): <=.5 μg/mL | Antibiotic MICs ([2]; isolate Kp_7): >8 µg/mL | Antibiotic MICs ([2]; isolate Kp_8): >8 µg/mL

C[C@@H](O)[C@H]1C(=O)N2C(C(=O)O)=C(S[C@@H]3CN[C@H](C(=O)N(C)C)C3)[C@H](C)[C@H]12 [meropenem]
average percentage of DNA released from susceptible isolates [4]: 21%

benzalkonium chloride [BAC]
average percentage lysis by 5-min incubation with the enhancer alone [6]: 91.6%
